In ChEMBL document CHEMBL3994587, “An insight on synthetic and medicinal aspects of pyrazolo[1,5-a]pyrimidine scaffold” (Eur J Med Chem, 2017):
In brackets after ≈: the same amount, converted by molar mass.

Legend:
Ehrlich = test: Cytotoxicity against […] EAC cells by trypan blue staining based microscopic analysis; type: functional, cell-based, Mus musculus
Serratia marcescens = test: Antibacterial activity against Serratia marcescens IMRU 70 assessed as zone of inhibition at 1 mg/ml measured after 24 hrs by agar diffusion method; type: functional; conditions: IMRU 70, 24 h, read-out: IZ
Staphylococcus aureus [1] = test: Antibacterial activity against Staphylococcus aureus NCTC 7447 assessed as zone of inhibition at 1 mg/ml measured after 24 hrs by agar diffusion method; type: functional; conditions: NCTC 7447, 24 h, read-out: IZ
Escherichia coli [2] = test: Antibacterial activity against Escherichia coli NCTC 10416 assessed as zone of inhibition at 1 mg/ml measured after 24 hrs by agar diffusion method; type: functional; conditions: NCTC 10416, 24 h, read-out: IZ
Bacillus subtilis [3] = test: Antibacterial activity against Bacillus subtilis NCTC 10400 assessed as zone of inhibition at 1 mg/ml measured after 24 hrs by agar diffusion method; type: functional; conditions: NCTC 10400, 24 h, read-out: IZ
Sarcina = test: Antibacterial activity against Sarcina sp. NCTC 1117 assessed as zone of inhibition at 1 mg/ml measured after 24 hrs by agar diffusion method; type: functional; conditions: NCTC 1117, 24 h, read-out: IZ
[4] = system: Trichophyton mentagrophytes; test: Anti-fungal activity against Trichophyton mentagrophytes measured after 48 hrs by broth dilution method; type: functional
Candida albicans [5] = test: Antifungal activity against Candida albicans RCMB 0005003 assessed as zone of inhibition at 30 ug/ml; type: functional; conditions: read-out: IZ
[6] = system: Syncephalastrum racemosum; test: Antifungal activity against Syncephalastrum racemosum 005004 assessed as zone of inhibition at 30 ug/ml; type: functional; conditions: read-out: IZ
Geotrichum candidum = test: Antifungal activity against Geotrichum candidum 052008 assessed as zone of inhibition at 30 ug/ml; type: functional; conditions: read-out: IZ
Aspergillus fumigatus = test: Antifungal activity against Aspergillus fumigatus RCMB 002006 assessed as zone of inhibition at 30 ug/ml; type: functional; conditions: read-out: IZ
Translocator protein [7] = molecular target: T1, Translocator protein (Rattus norvegicus, UniProt P16257); test: Displacement of [3H]Ro5-4864 from PBZR in rat kidney mitochondrial membranes measured after 90 mins by liquid scintillation counting; type: cell membranes
Translocator protein [8] = molecular target: T1, Translocator protein; test: Displacement of [3H]PK11195 from PBZR in rat kidney mitochondrial membranes measured after 90 mins by liquid scintillation counting; type: cell membranes
Pseudomonas aeruginosa [9] = test: Antibacterial activity against Pseudomonas aeruginosa RCMB 000103 assessed as zone of inhibition at 30 ug/ml; type: functional; conditions: read-out: IZ
Staphylococcus aureus [10] = test: Antibacterial activity against Staphylococcus aureus RCMB 000108 assessed as zone of inhibition at 30 ug/ml; type: functional; conditions: read-out: IZ
Escherichia coli [11] = test: Antibacterial activity against Escherichia coli RCMB 000106 assessed as zone of inhibition at 30 ug/ml; type: functional; conditions: read-out: IZ
Bacillus subtilis [12] = test: Antibacterial activity against Bacillus subtilis RCMB 000109 assessed as zone of inhibition at 30 ug/ml; type: functional; conditions: read-out: IZ
Staphylococcus aureus [13] = test: Antibacterial activity against Staphylococcus aureus measured after 18 hrs by agar dilution method; type: functional
Pseudomonas aeruginosa [14] = test: Antibacterial activity against Pseudomonas aeruginosa measured after 18 hrs by agar dilution method; type: functional
Candida albicans [15] = test: Antifungal activity against Candida albicans measured after 18 hrs by agar dilution method; type: functional
Bacillus subtilis [16] = test: Antibacterial activity against Bacillus subtilis measured after 18 hrs by agar dilution method; type: functional
Escherichia coli [17] = test: Antibacterial activity against Escherichia coli measured after 18 hrs by agar dilution method; type: functional
Bacillus subtilis [18] = test: Antibacterial activity against Bacillus subtilis MTCC 441 assessed as zone of inhibition at 25 to 150 ug/ml measured after 24 hrs by agar well diffusion method; type: functional
Aspergillus niger = test: Antifungal activity against Aspergillus niger assessed as zone of inhibition at 25 to 150 ug/ml measured after 24 to 48 hrs by agar well diffusion method; type: functional
Aspergillus flavus = test: Antifungal activity against Aspergillus flavus MTCC 3008 assessed as zone of inhibition at 25 to 150 ug/ml measured after 24 to 48 hrs by agar well diffusion method; type: functional
Penicillium chrysogenum = test: Antifungal activity against Penicillium chrysogenum MTCC 160 assessed as zone of inhibition at 25 to 150 ug/ml measured after 24 to 48 hrs by agar well diffusion method; type: functional
Candida albicans [19] = test: Antifungal activity against Candida albicans MTCC 227 assessed as zone of inhibition at 25 to 150 ug/ml measured after 24 to 48 hrs by agar well diffusion method; type: functional
Staphylococcus aureus [20] = test: Antibacterial activity against Staphylococcus aureus MTCC 96 assessed as zone of inhibition at 25 to 150 ug/ml measured after 24 hrs by agar well diffusion method; type: functional
Escherichia coli [21] = test: Antibacterial activity against Escherichia coli MTCC 443 assessed as zone of inhibition at 25 to 150 ug/ml measured after 24 hrs by agar well diffusion method; type: functional

T1 sequence (P16257 whole entry, looked up): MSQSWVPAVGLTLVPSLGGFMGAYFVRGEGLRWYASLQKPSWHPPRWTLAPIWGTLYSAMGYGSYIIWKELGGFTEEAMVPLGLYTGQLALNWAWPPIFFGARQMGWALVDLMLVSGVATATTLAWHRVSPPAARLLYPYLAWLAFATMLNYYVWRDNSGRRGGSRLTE

Cc1nn2c(-c3ccccc3)ccnc2c1/N=N/c1c(C)n(C)n(-c2ccccc2)c1=O
ED25 (Ehrlich): 70.2 µg/mL (≈ 166 µM)
ED100 (Ehrlich): 99.8 µg/mL
IC50 (Ehrlich; Mus musculus, Ehrlich): 3.13 µg/mL (≈ 7.39 µM)
EC50 (Ehrlich; Mus musculus, Ehrlich, read-out: ED50 (the source's name)): 87.1 µg/mL (≈ 206 µM)

COc1ccccc1NS(=O)(=O)c1ccc(/N=N/c2c(=O)[nH]n3c(-c4ncccn4)c(C#N)c(N)nc23)cc1
zone of inhibition at 1000 µg/mL (Serratia marcescens): 12 to 14 mm
zone of inhibition at 1000 µg/mL (Staphylococcus aureus [1]): 15 to 18 mm
zone of inhibition at 1000 µg/mL (Escherichia coli [2]): 12 to 14 mm
zone of inhibition at 1000 µg/mL (Bacillus subtilis [3]): 15 to 18 mm
zone of inhibition at 1000 µg/mL (Sarcina): 12 to 14 mm

COc1ccc(NS(=O)(=O)c2ccc(/N=N/c3c(=O)[nH]n4c(-c5ncccn5)c(C#N)c(N)nc34)cc2)cc1
zone of inhibition at 1000 µg/mL (Serratia marcescens): 15 to 18 mm
zone of inhibition at 1000 µg/mL (Staphylococcus aureus [1]): 12 to 14 mm
zone of inhibition at 1000 µg/mL (Escherichia coli [2]): 15 to 18 mm
zone of inhibition at 1000 µg/mL (Bacillus subtilis [3]): 9 to 11 mm
zone of inhibition at 1000 µg/mL (Sarcina): 15 to 18 mm

COc1ccc(NS(=O)(=O)c2ccc(/N=N/c3c(=O)[nH]n4c(-c5nccc(C)n5)c(C#N)c(N)nc34)cc2)cc1
zone of inhibition at 1000 µg/mL (Serratia marcescens): 15 to 18 mm
zone of inhibition at 1000 µg/mL (Staphylococcus aureus [1]): 12 to 14 mm
zone of inhibition at 1000 µg/mL (Escherichia coli [2]): 12 to 14 mm
zone of inhibition at 1000 µg/mL (Bacillus subtilis [3]): 9 to 11 mm
zone of inhibition at 1000 µg/mL (Sarcina): 15 to 18 mm

CCCCCCCC/C=C\CCCCCCCCNc1cc(C)nc2c(Br)cnn12
MLC [4]: 20 µM (≈ 9.55 µg/mL)
MIC ([4]; Trichophyton mentagrophytes, 48 h): 10 µM (≈ 4.78 µg/mL)

Clc1ccccc1C(c1ccccc1)(c1ccccc1)n1ccnc1 [CLOTRIMAZOLE]
zone of inhibition at 30 µg/mL (Candida albicans [5]): 20.8 mm
zone of inhibition at 30 µg/mL [6]: 21.4 mm
zone of inhibition at 30 µg/mL (Geotrichum candidum): 23.2 mm
zone of inhibition at 30 µg/mL (Aspergillus fumigatus): 26.3 mm

CCC(CC)C(=O)Cc1c(-c2ccc(OC)cc2)nn2c(C)cc(C)nc12
Ki (Translocator protein [7]): 3.1 nM
Ki (Translocator protein [8]): 4.7 nM

Cc1ccc(/N=N/c2c(N)nn3c(-c4ccco4)cc(-c4ccco4)nc23)cc1
zone of inhibition at 30 µg/mL (Pseudomonas aeruginosa [9]): 18.5 mm
zone of inhibition at 30 µg/mL (Candida albicans [5]): 18.1 mm
zone of inhibition at 30 µg/mL [6]: 14.8 mm
zone of inhibition at 30 µg/mL (Geotrichum candidum): 19.5 mm
zone of inhibition at 30 µg/mL (Aspergillus fumigatus): 21.8 mm
zone of inhibition at 30 µg/mL (Staphylococcus aureus [10]): 22.2 mm
zone of inhibition at 30 µg/mL (Escherichia coli [11]): 21.9 mm
zone of inhibition at 30 µg/mL (Bacillus subtilis [12]): 23.3 mm

Cc1nc(-c2ccccc2)sc1-c1ccn2nc(-c3ccccc3)cc2n1
MIC (Staphylococcus aureus [13]): ≥ 800 µg/mL
MIC (Pseudomonas aeruginosa [14]): ≥ 800 µg/mL
MIC (Candida albicans [15]): ≥ 800 µg/mL
MIC (Bacillus subtilis [16]): ≥ 800 µg/mL
MIC (Escherichia coli [17]): ≥ 800 µg/mL

O=C(O)c1cn(C2CC2)c2cc(N3CCNCC3)c(F)cc2c1=O [CIPROFLOXACIN]
MIC (Staphylococcus aureus [13]): ≤ 25 µg/mL
MIC (Pseudomonas aeruginosa [14]): 400 µg/mL (≈ 1210 µM)
MIC (Candida albicans [15]): ≥ 800 µg/mL
MIC (Bacillus subtilis [16]): ≤ 25 µg/mL
MIC (Escherichia coli [17]): ≤ 25 µg/mL

OC(Cn1cncn1)(Cn1cncn1)c1ccc(F)cc1F [FLUCONAZOLE]
MIC (Staphylococcus aureus [13]): ≥ 800 µg/mL
MIC (Pseudomonas aeruginosa [14]): ≥ 800 µg/mL
MIC (Candida albicans [15]): ≤ 25 µg/mL
MIC (Bacillus subtilis [16]): ≥ 800 µg/mL
MIC (Escherichia coli [17]): ≥ 800 µg/mL

CCC(CC)C(=O)Cc1c(-c2ccc(Cl)cc2)nn2c(C)cc(-c3ccccc3)nc12
Ki (Translocator protein [7]): 2.7 nM
Ki (Translocator protein [8]): 3.4 nM

CCC(CC)C(=O)Cc1c(-c2ccc(Cl)cc2)nn2c(C)cc(C)nc12
Ki (Translocator protein [7]): 1.4 nM
Ki (Translocator protein [8]): 2.4 nM

Cc1cc(O)c(-c2cc(-c3c(C)nn(-c4ccccc4)c3Cl)n3nc(N)c(/N=N/c4ccc(Cl)cc4)c3n2)cc1Cl
inhibition zone (IZ) (Bacillus subtilis [18]): 18 mm
inhibition zone (IZ) (Aspergillus niger): 16 mm
inhibition zone (IZ) (Aspergillus flavus): 10 mm
inhibition zone (IZ) (Penicillium chrysogenum): 19 mm
inhibition zone (IZ) (Candida albicans [19]): 20 mm
inhibition zone (IZ) (Staphylococcus aureus [20]): 14 mm
inhibition zone (IZ) (Escherichia coli [21]): 16 mm

Cc1nc(-c2ccccc2)sc1-c1ccn2nc(C#N)cc2n1
MIC (Staphylococcus aureus [13]): ≥ 800 µg/mL
MIC (Pseudomonas aeruginosa [14]): ≥ 800 µg/mL
MIC (Candida albicans [15]): ≥ 400 µg/mL
MIC (Bacillus subtilis [16]): ≥ 800 µg/mL
MIC (Escherichia coli [17]): ≥ 800 µg/mL
